Key:
TRPC3 = assay: Western analysis of TRPC3 protein expression in arteries; format: cell-based, rat; settings: Angiotensin-II hypertensive rats; cerebral and mesenteric arteries
Procedure: (§1) Western Analysis. Arterial segments were homogenized in lysis buffer (5 minutes, 4° C.) containing (in mM): 40 CAPS, 1 DL-Dithiothreitol (DTT), 10 EDTA, 15 MgCl2, 115 NaCl, 1 NaOrthovanadate, 1 NaF, 2.5 Urea, and 0.25% deoxychlorate, 10% glycerol, 1% NP-40, 0.2% SDS, and 1:50 mammalian protease inhibitor cocktail (Sigma, St. Louis, Mo., USA). Equal amounts of sample protein were separated on a 10% polyacrylamide gel and transferred to a nitrocellulose membrane. The membranes were exposed to a TRPC3 or TRPC6 polyclonal antibody (anti-rabbit 1:200 dilution, Alomone Labs, Jerusalem, Israel) and a […] (GAPDH) monoclonal antibody (anti-mouse, 1:1000 dilution, Chemicon Labs, Temecula, Calif., USA). Alexa-Fluor 680® goat anti-rabbit (Molecular Probes, Eugene, Oreg., USA) and IRDyeTM800 anti-mouse (Rockland Immunochemicals, Gilbertsville, Pa., USA) were used to fluorescently label the TRPC3 and GAPDH antibodies respectively. The density of signals specific for the TRPC3 and GAPDH bands in a given lane on a membrane were measured after scanning the membrane with an Odyssey® infared imaging system (Li-COR Biosciences, Lincoln, Nebr., USA). Quantified amounts were normalized to a total protein amount lane on the polyacrylamide gel.
Oligodeoxynucleotide Sequences and Reverse Permeabilization. TRPC6 sense and antisense oligodeoxynucleotides (ODN's) were designed as previously described (Welsh et al 2002 Circ Res 90, 248-250) and were as follows: sense, 5′-[…]-3′ (SEQ ID: 3) and 5′-GCACACGCAGCCTCTTCAC-3′ (SEQ ID: 4) antisense, 5′-[…]-3′ (SEQ ID: 5) and 5′-[…]-3′ (SEQ ID: 6). TRPC3 sense and antisense ODN's were designed based on the rat TRPC3 gene (Ohki et al 2000 J Biol Chem 275: 39055-39060) and are as follows: sense, 5′-[…]-3′ (SEQ ID: 7) and 5′-[…]-3′ (SEQ ID: 8); anti-sense, 5′-[…]-3′ (SEQ ID: 9) and 5′-[…]-3′ (SEQ ID: 10). The last five bases on the 5′ and 3′ end were phosphorothioated in order to limit ODN degradation. […]

TRPC6 = assay: Western analysis of TRPC6 protein expression in arteries; format: cell-based, rat; settings: Angiotensin-II hypertensive rats; cerebral arteries
Procedure: as §1
Oligodeoxynucleotide Sequences and Reverse Permeabilization. […]

[1] = Blood pressure (MAP) by tailcuff; format: in vivo, rat; settings: 12 days subcutaneous osmotic pump, tailcuff just prior to euthanasia
Procedure: Animals and tissues. Twelve- to 16-week old male Sprague-Dawley rats, spontaneously hypertensive rats (SHR), and Wistar-Kyoto rats ([…]) (Charles River Laboratories, St. Constant, Canada) were studied. All animal use procedures were in accordance with institutional guidelines and approved by the institutional Animal Care and Use Committee at the University of Vermont. Rats were euthanized with an injection of pentobarbitone (150 mg/kg ip) followed by exsanguination. The brain was removed and cerebellar and cerebral arteries (between 125 and 225 μm diameter) were dissected free in ice-cold MOPS-buffered saline solution containing (in mM): 3 MOPS, 145 NaCl, 5 KCl, 1 MgSO4.7H2O, 2.5 CaCl2, 1 KH2PO4, 0.02 EGTA, 2 pyruvate, 5 glucose and 1% bovine serum albumin (BSA) at pH 7.4. Angiotensin II or a control vehicle (physiological saline solution) was administered for 12 days using a subcutaneous osmotic pump. Blood pressures (MAP) were measured by tailcuff just prior to euthanasia and averaged 93±2 mm Hg in control rats and 146±5 mm Hg in Angiotensin II treated rats.

Angiotensin II (DRVYIHPF; Angiotensin-2; UniProt P01015 25-32, looked up)
expression of TRPC3 versus normotensive controls (TRPC3): trends towards increased expression
expression of TRPC6 versus normotensive controls (TRPC6): increased expression
Blood pressure (MAP) [1]: 146±5 mm Hg

— US20060217340A1, “Methods and products for treating hypertension by modulation of TRPC3 channel activity” (University of Vermont and State Agricultural College, priority 2005, published 2006)
